Measurements published in patent US12492202B2, “Macrocyclic PAD4 inhibitors useful as immunosuppressant” (BRISTOL-MYERS SQUIBB COMPANY, priority 2020, dated 2025).

What follows are molecules tested against human PAD4 (hPAD4) (Homo sapiens (Human), UniProt Q9UM07) (assay: RFMS Human PAD4 Functional Assay). Conditions: rapid-fire mass spectrum (RFMS) assay; 5 nM hPAD4 enzyme, 250 μM BAEE, 30 min preincubation at 37° C.
human PAD4 (hPAD4), sequence (Q9UM07 whole entry): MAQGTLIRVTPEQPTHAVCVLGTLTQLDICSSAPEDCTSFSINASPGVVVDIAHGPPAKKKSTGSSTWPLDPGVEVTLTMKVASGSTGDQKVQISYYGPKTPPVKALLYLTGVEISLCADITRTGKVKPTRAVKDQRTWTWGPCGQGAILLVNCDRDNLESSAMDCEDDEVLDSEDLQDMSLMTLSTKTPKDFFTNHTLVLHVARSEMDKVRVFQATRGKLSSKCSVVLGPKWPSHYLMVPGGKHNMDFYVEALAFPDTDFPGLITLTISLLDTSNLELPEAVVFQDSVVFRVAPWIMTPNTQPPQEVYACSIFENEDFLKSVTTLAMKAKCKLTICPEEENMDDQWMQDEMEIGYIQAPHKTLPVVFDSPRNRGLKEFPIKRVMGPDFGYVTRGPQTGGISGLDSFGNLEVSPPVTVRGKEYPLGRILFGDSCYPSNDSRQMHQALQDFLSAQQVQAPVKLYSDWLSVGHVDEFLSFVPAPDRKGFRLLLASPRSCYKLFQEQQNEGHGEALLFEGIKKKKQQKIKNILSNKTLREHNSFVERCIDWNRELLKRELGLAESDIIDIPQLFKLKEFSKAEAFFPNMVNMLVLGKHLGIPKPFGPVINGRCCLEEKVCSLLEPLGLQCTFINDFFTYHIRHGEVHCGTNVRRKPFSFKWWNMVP
Type: biochemical
Procedure: RFMS Human PAD4 Functional Assay: Compounds were solubilized in 100% DMSO to achieve a 10 mM compound concentration. Compound stock solutions were stored at RT. A series of dilutions were prepared in DMSO and mixed 8 times with 20 μL mixing volume. Final top concentration of compound in the assay is 50 μM. Final assay conditions were as follows: • Reaction volume: 26 μl • Assay buffer: 25 mM hepes, pH 7.5, 5 mM NaCl, 1 mM DTT, 0.2 mg/ml BSA, 0.01% CHAPS, 50 μM Calcium, and 5 μM TPEN • Final concentrations: 5 nM hPAD4 enzyme, 250 μM BAEE, and 0.5% DMSO • Total incubation time: 30 mins compound and enzyme preincubation at 37° C., 90 min enzyme/substrate reaction, 30 min reaction with phenyl glyoxal at 37° C. • Stop solution: 40 μl 5% TCA in ACN 0.13 μL of compound solution was added to 13 μL of 10 nM PAD4 in assay buffer. After 30 min 13 μl of 500 μM of BAEE was added in 25 mM hepes, pH 7.5, 5 mM NaCl, 1 mM DTT, 0.2 mg/ml BSA, 0.01% CHAPS, 50 μM Calcium, 5 μM TPEN was added and the reaction incubated for 90 min at 37° C. The enzymatic reaction was quenched by addition of 15 μl of 6.1N TCA, 100% Final Concentration is 20%, 35 μl of 8.5 mM phenyl glyoxal (final concentration 4 mM) is then added and the reaction is incubated for 30 min at 37° C. After 30 minutes the plates are spun down to remove all precipitate. The enzyme reaction was quenched with an equal volume of methanol containing internal standard (modified citrulline). Samples were loaded onto the Rapid Fire RF300 system (Agilent) wherein they were first sipped for 1000 ms and then directly loaded to a C18 separations cartridge using a mixture of acetonitrile containing 0.01% formic acid for 3000 ms desalting. The flow rate of the mobile phase was 1.5 ml/min. Once the samples were eluted from the cartridge, a mobile phase of acetonitrile containing 0.01% formic acid was used to move the samples into the mass spectrometer for 4000 ms at a flow rate of 1.25 ml/min/Sciex API5500 triple quadrupole mass spectrometer (Applied Biosystems) equipped with ESI was used to analyze the peptidyl citrulline and internal standard ions. MRM transition of product and internal standard were monitored at m/z 424.5 to 350.4 and m/z 293 to 247 respectively. The dwell time for each transition was set at 200 ms, and the ESI voltage was used at 5500 with a source temperature of 400° C. Extracted ion peaks for each transition were integrated using the Rapid Fire Integrator software. Peak area of analyte was normalized with internal standard).
`COc1cc(C(=O)N2C[C@H]3CC[C@@H]2[C@@H]3N)cc2nc3n(c12)Cc1cccc(c1)[C@H](O)[C@H](O)CCCCn1c-3cc2cccnc21` (relative stereo) [Example 47, ((1R,4R,7R)-7-amino-2-azabicyclo[2.2.1]heptan-2-yl)((5S,6R)-5,6-dihydroxy-27-methoxy-1^1H,2^1H-1,2(2,1)-dipyrrolo[2,3-b]pyridina-4(1,3)-benzenacyclodecaphane-25-yl)methanone] showed an IC50 of 88 nM. With `COc1cc(C(=O)N2C[C@H]3CC[C@@H]2[C@@H]3N)cc2nc3n(c12)Cc1cccc(c1)[C@H](O)[C@H](O)CCCCn1c-3cc2cccnc21` (relative stereo) [Example 48, ((1R,4R,7R)-7-amino-2-azabicyclo[2.2.1]heptan-2-yl)((5S,6R)-5,6-dihydroxy-27-methoxy-1^1H,2^1H-1,2(2,1)-dipyrrolo[2,3-b]pyridina-4(1,3)-benzenacyclodecaphane-25-yl)methanone] the IC50 was 92 nM. `COc1cc(C(=O)N2C[C@H]3CC[C@@H]2[C@@H]3N)cc2nc3n(c12)CC1CC(=O)N(C1)c1ccccc1CCCCn1c-3cc2cccnc21` (single isomer, unassigned) [Example 37] showed an IC50 of 19 nM. For `COc1cc(C(=O)N2C[C@H]3CC[C@@H]2[C@@H]3N)cc2nc3n(c12)CC1CC(=O)N(C1)c1ccccc1CCCCn1c-3cc2cccnc21` (single isomer, unassigned) [Example 38], the IC50 was 78 nM. With `COc1cc(C(=O)N2C[C@H]3CC[C@@H]2[C@@H]3N)cc2nc3n(c12)Cc1cccc(c1)[C@H](O)[C@H](O)CCCCn1c-3cc2cccnc21` (single isomer, unassigned) [Example 45] the IC50 was 30.6 nM. Work on `COc1cc(C(=O)N2C[C@H]3CC[C@@H]2[C@@H]3N)cc2nc3n(c12)Cc1cccc(c1)[C@H](O)[C@H](O)CCCCn1c-3cc2cccnc21` (single isomer, unassigned) [Example 46] yielded an IC50 of 44.8 nM. `COc1cc(C(=O)N2C[C@H](N)C[C@@H](F)C2)cc2nc3n(c12)Cc1cccc(c1)[C@H](O)[C@H](O)CCCCn1c-3cc2cccnc21` (single isomer, unassigned) [Example 49] was tested, and the IC50 was 292 nM. With `COc1cc(C(=O)N2C[C@H](N)C[C@@H](F)C2)cc2nc3n(c12)Cc1cccc(c1)[C@H](O)[C@H](O)CCCCn1c-3cc2cccnc21` (single isomer, unassigned) [Example 50] the IC50 was 837 nM. Molecule `COc1cc(C(=O)N2CC3CCC2[C@@H]3N)cc2nc3n(c12)Cc1cccc(c1)/C=C\CCCCn1c-3cc2cccnc21` (stereo in doubt) [Example 41, ((1R,4R,7R)-7-Amino-2-azabicyclo[2.2.1]heptan-2-yl)((Z)-27-methoxy-11H,21H-1,2(2,1)-dipyrrolo[2,3-b]pyridina-4(1,3)-benzenacyclodecaphan-5-en-25-yl)methanone] has an IC50 of 44.9 nM. Work on `COc1cc(C(=O)N2CC3CCC2[C@@H]3N)cc2nc3n(c12)Cc1cnn(c1)CCCCCn1c-3cc2ccccc21` (stereo partly drawn) [Example 1, ((7R)-7-Amino-2-azabicyclo[2.2.1]heptan-2-yl)((Z)-2^7-methoxy-1^1H,2^1H,4^1H-2(2,1)-benzo[d]imidazola-1(2,1)-indola-4(4,1)-pyrazolacyclononaphane-2^5-yl)methanone] yielded an IC50 of 255 nM. In the case of `COc1cc(C(=O)N2CC3CCC2[C@@H]3N)cc2nc3n(c12)Cc1cnn(c1)CCCCCCn1c-3cc2cccnc21` (stereo partly drawn) [Example 2, ((7R)-7-Amino-2-azabicyclo[2.2.1]heptan-2-yl)((Z)-2^7-methoxy-1^1H,2^1H,4^1H-1,2(2,1)-dipyrrolo[2,3-b]pyridina-4(4,1)-pyrazolacyclodecaphane-2^5-yl)methanone], the IC50 is reported as 1370 nM. `COc1cc(C(=O)N2C[C@H](N)C[C@@H](F)C2)cc2nc3n(c12)Cc1cnn(c1)-c1ccccc1OCCCn1c-3cc2ccccc21` [Example 3, ((3R,5R)-3-Amino-5-fluoropiperidin-1-yl)((Z)-2^7-methoxy-1^1H,2^1H,4^1H-6-oxa-2(2,1)-benzo[d]imidazola-1(2,1)-indola-4(4,1)-pyrazola-5(1,2)-benzenacyclononaphane-2^5-yl)methanone] showed an IC50 of 19 nM. With `COc1cc(C(=O)N2CC3CCC2[C@@H]3N)cc2nc3n(c12)Cc1cnn(c1)CCCCCCn1c-3cc2ccccc21` (stereo partly drawn) [Example 4, ((7R)-7-amino-2-azabicyclo[2.2.1]heptan-2-yl)((Z)-2^7-methoxy-1^1H,2^1H,4^1H-2(2,1)-benzo[d]imidazola-1(2,1)-indola-4(4,1)-pyrazolacyclodecaphane-2^5-yl)methanone] the IC50 was 24 nM. `COc1cc(C(=O)N2C[C@H](N)C[C@@H](F)C2)cc2nc3n(c12)Cc1cnn(c1)CCCCCCCn1c-3cc2ccccc21` [Example 5, ((3R,5R)-3-amino-5-fluoropiperidin-1-yl)((Z)-2^7-methoxy-1^1H,2^1H,4^1H-2(2,1)-benzo[d]imidazola-1(2,1)-indola-4(4,1)-pyrazolacycloundecaphane-2^5-yl)methanone] showed an IC50 of 37 nM. `COc1cc(C(=O)N2CC3CCC2[C@@H]3N)cc2nc3n(c12)Cc1cnn(c1)CCCCCCCn1c-3cc2ccccc21` (stereo partly drawn) [Example 6, ((7R)-7-amino-2-azabicyclo[2.2.1]heptan-2-yl)((Z)-2^7-methoxy-1^1H,2^1H,4^1H-2(2,1)-benzo[d]imidazola-1(2,1)-indola-4(4,1)-pyrazolacycloundecaphane-2^5-yl)methanone] gave an IC50 of 31 nM. Molecule `COc1cc(C(=O)N2C[C@H](N)C[C@@H](F)C2)cc2nc3n(c12)Cc1cnn(c1)CCCCCCn1c-3cc2cccnc21` [Example 8, ((3R,5R)-3-amino-5-fluoropiperidin-1-yl)((Z)-2^7-methoxy-1^1H,2^1H,4^1H-1,2(2,1)-dipyrrolo[2,3-b]pyridina-4(4,1)-pyrazolacyclodecaphane-2^5-yl)methanone] has an IC50 of 277 nM. For `COc1cc(C(=O)N2C[C@H](N)C[C@@H](F)C2)cc2nc3n(c12)Cc1cnn(c1)CCCCCCCn1c-3cc2cccnc21` [Example 9, ((3R,5R)-3-amino-5-fluoropiperidin-1-yl)((Z)-2^7-methoxy-1^1H,2^1H,4^1H-1,2(2,1)-dipyrrolo[2,3-b]pyridina-4(4,1)-pyrazolacycloundecaphane-2^5-yl)methanone], the IC50 was 612 nM. In the case of `COc1cc(C(=O)N2CC3CCC2[C@@H]3N)cc2nc3n(c12)Cc1cnn(c1)CCCCCCCn1c-3cc2cccnc21` (stereo partly drawn) [Example 10, ((7R)-7-amino-2-azabicyclo[2.2.1]heptan-2-yl)((Z)-2^7-methoxy-1^1H,2^1H,4^1H-1,2(2,1)-dipyrrolo[2,3-b]pyridina-4(4,1)-pyrazolacycloundecaphane-2^5-yl)methanone], the IC50 is reported as 137 nM. `COc1cc(C(=O)N2CCC[C@@H](N)C2)cc2nc3n(c12)Cc1cnn(c1)CCCCCCn1c-3cc2cccnc21` [Example 11, ((R)-3-aminopiperidin-1-yl)((Z)-2^7-methoxy-1^1H,2^1H,4^1H-1,2(2,1)-dipyrrolo[2,3-b]pyridina-4(4,1)-pyrazolacyclodecaphane-2^5-yl)methanone] was tested, and the IC50 was 18800 nM. `COc1cc(C(=O)N2CC3CCC2[C@@H]3N)cc2nc3n(c12)Cc1cnn(c1)CCCCCCn1c-3cc2ccccc21` (stereo partly drawn) [Example 12, ((7R)-7-amino-2-azabicyclo[2.2.1]heptan-2-yl)((E)-2^7-methoxy-1^1H,2^1H,4^1H-2(2,1)-benzo[d]imidazola-1(2,1)-indola-4(3,1)-pyrazolacyclodecaphane-2^5-yl)methanone] showed an IC50 of 47 nM. `COc1cc(C(=O)N2C[C@H](N)C[C@@H](F)C2)cc2nc3n(c12)Cc1cnn(c1)CCCCCCn1c-3cc2ccccc21` [Example 13, ((3R,5R)-3-amino-5-fluoropiperidin-1-yl)((E)-2^7-methoxy-1^1H,2^1H,4^1H-2(2,1)-benzo[d]imidazola-1(2,1)-indola-4(3,1)-pyrazolacyclodecaphane-2^5-yl) methanone] was tested, and the IC50 was 66 nM. `COc1cc(C(=O)N2CC3CCC2[C@@H]3N)cc2nc3n(c12)Cc1cnn(c1)-c1ccccc1OCCCn1c-3cc2ccccc21` (stereo partly drawn) [Example 14, ((7R)-7-amino-2-azabicyclo[2.2.1]heptan-2-yl)((Z)-2^7-methoxy-1^1H,2^1H,4^1H-6-oxa-2(2,1)-benzo[d]imidazola-1(2,1)-indola-4(4,1)-pyrazola-5(1,2)-benzenacyclononaphane-2^5-yl) methanone] was tested, and the IC50 was 11 nM. `COc1cc(C(=O)N2C[C@H](N)C[C@@H](F)C2)cc2nc3n(c12)Cc1cnn(c1)-c1ccccc1OCCCn1c-3cc2cccnc21` [Example 15, ((3R,5R)-3-amino-5-fluoropiperidin-1-yl)((Z)-2^7-methoxy-1^1H,2^1H,4^1H-6-oxa-1,2(2,1)-dipyrrolo[2,3-b]pyridina-4(4,1)-pyrazola-5(1,2)-benzenacyclononaphane-2^5-yl)methanone] was tested, and the IC50 was 40 nM. `COc1cc(C(=O)N2CC3CCC2[C@@H]3N)cc2nc3n(c12)Cc1cnn(c1)-c1ccccc1OCCCn1c-3cc2cccnc21` (stereo partly drawn) [Example 16, ((7R)-7-amino-2-azabicyclo[2.2.1]heptan-2-yl)((Z)-2^7-methoxy-1^1H,2^1H,4^1H-6-oxa-1,2(2,1)-dipyrrolo[2,3-b]pyridina-4(4,1)-pyrazola-5(1,2)-benzenacyclononaphane-2^5-yl)methanone] was tested, and the IC50 was 15 nM. In the case of `COc1cc(C(=O)N2CC3CCC2[C@@H]3N)cc2nc3n(c12)Cc1ccn(n1)-c1ccccc1OCCCn1c-3cc2cccnc21` (stereo partly drawn) [Example 17, ((7R)-7-amino-2-azabicyclo[2.2.1]heptan-2-yl)((E)-2^7-methoxy-1^1H,2^1H,4^1H-6-oxa-1,2(2,1)-dipyrrolo[2,3-b]pyridina-4(3,1)-pyrazola-5(1,2)-benzenacyclononaphane-2^5-yl) methanone], the IC50 is reported as 11 nM. With `COc1cc(C(=O)N2C[C@H](N)C[C@@H](F)C2)cc2nc3n(c12)Cc1ccn(n1)-c1ccccc1OCCCn1c-3cc2cccnc21` [Example 18, ((3R,5R)-3-amino-5-fluoropiperidin-1-yl)((E)-2^7-methoxy-1^1H,2^1H,4^1H-6-oxa-1,2(2,1)-dipyrrolo[2,3-b]pyridina-4(3,1)-pyrazola-5(1,2)-benzenacyclononaphane-2^5-yl)methanone] the IC50 was 9 nM.
